“Also recorded” adds a separate entry of the source.
Columns and labels:
Type in all cases: in vivo
Lycopersicum esculentum [1] = test: Sugar content determination of Lycopersicum esculentum fruit with refractometer (Example 2); conditions: 0.5 mM applied as in Example 1; compared to Cont and Cont2 Sunny conditions; ANOVA 5%
Description: Cultivated were Lycopersicum esculentum plants to which GSSG or GSH was applied by the method described in Example 1. Then, obtained fruit of the plants was subjected to sugar content determination using “Pocket” Refractometer APAL-1 (ATAGO CO., LTD.).
For comparison, Lycopersicum esculentum plants were cultivated under two types of conditions (referred to as “Cont” and “Cont2 Sunny”). In the Cont condition, Lycopersicum esculentum plants were cultivated by the same method as in Example 1, except that GSSG and GSH were not applied. In the Cont2 Sunny condition, a Lycopersicum esculentum plant was not applied with GSSG or GSH and was independently cultivated at a site sufficiently irradiated with sunlight so that illuminance on the Lycopersicum esculentum plant becomes 100%. In the Cont condition and a condition in which GSSG or GSH was applied, the plants were planted at intervals of 40 cm to 50 cm. In this case, a plant may intercept light irradiating another plant. Therefore, illuminance on such plants becomes less than 100%.
In the condition in which GSSG was applied, the condition in which GSH is applied, and the Cont condition, three Lycopersicum esculentum plants were cultivated, respectively. In the Cont2 Sunny condition, one Lycopersicum esculentum plant was cultivated. […]

Citrus unshiu = Citrus unshiu leaf coating with GSSG, sensory test of fruit (Example 9); conditions: leaf surface coated with 0.5 mM one week before harvest
Description: In the present example, Citrus unshiu was cultivated. Specifically, one week before an expected date of harvesting Citrus unshiu fruit, a surface of a leaf on a branch having the fruit to be harvested was coated with 0.5 mM GSSG. The fruit was harvested on the expected date.
Next, the fruit harvested was subjected to a sensory test of sugar content. As a result, it was determined that the fruit applied with GSSG increased in sugar content and decreased in acidity. Further, it was determined that the fruit applied with GSSG increased in weight. Furthermore, the fruit obtained was subjected to sugar content determination using “Pocket” Refractometer APAL-1 (ATAGO CO., LTD.). For comparison, fruit applied with no GSSG was also subjected to the sugar content determination. […] In FIG. 6, the vertical scale indicates sugar content (Brix, unit: %).

Prunus avium (Napoleon) = test: Prunus avium leaf coating with GSSG, sensory test of fruit (Example 8); conditions: leaf surface coated with 0.5 mM 4 weeks and 3 weeks before harvest
Description: In the present example, Prunus avium was cultivated. Specifically, 4 weeks and 3 weeks before an expected date of harvesting Prunus avium (Napoleon) fruit, a surface of a leaf on a branch having the fruit to be harvested was coated with 0.5 mM GSSG. The fruit was harvested on the expected date.
Next, the fruit harvested was subjected to a sensory test of sugar content. As a result, it was determined that the fruit applied with GSSG increased in sugar content and decreased in acidity. Further, it was determined that the fruit applied with GSSG increased in weight. Furthermore, the fruit obtained was subjected to sugar content determination using “Pocket” Refractometer APAL-1 (ATAGO CO., LTD.). For comparison, fruit applied with no GSSG was also subjected to the sugar content determination. […] In FIG. 5, the vertical scale indicates sugar content (Brix, unit: %).

Lycopersicum esculentum [2] = test: Cultivation of Lycopersicum esculentum with GSSG or GSH, sensory tests of fruit (Example 1); conditions: 50 mL of 0.5 mM at root twice a week, 60 days
Description: In the present example, Lycopersicum esculentum was cultivated with use of GSSG or GSH. Details of cultivation are described below.
First, Lycopersicum esculentum seedlings (TAKII & CO. Ltd., product name: Osama tomato reika) were transplanted into a hydroponic culture pot ( 1/2000 a). In the hidroponic culture pot, 6 L of vermiculite (ASAHI INDUSTRIES Co., LTD.), 3 L of KUREHA horticultural soil (KUREHA CORPORATION), and 3 L of vermiculite were layered as a lower, middle, and upper layers, respectively.
During the cultivation of Lycopersicum esculentum, 50 mL of 0.5 mM GSSG or 0.5 mM GSH (adjusted with 0.1N NaOH to be at pH 7) was applied twice a week at a root per plant. The Lycopersicum esculentum plants were grown for 60 days without being subjected to bud removal. Last 10 days was used as a harvest period for harvesting fruit of the plants. For comparison, a Lycopersicum esculentum plant was grown under the same condition, except that GSSG and GSH were not applied. To the plants of any condition, 3 g of Kumiai phosphorate ammonium nitrate potassium S-604 (Chisso Asahi Fertilizer Co., Ltd.) was applied as an additional fertilizer once in 2 weeks.
Next, the fruit harvested was subjected to sensory tests of sugar content and the like. As a result, it was determined that fruit of the plant applied with GSSG increased in sugar content compared to that of the plant not applied with GSSG or GSH. Further, it was determined that the plant applied with GSSG increased in number of fruit. It was determined that fruit of the plant applied with GSH increased in sugar content and acidity.

[3] = test system: Zea mays L. var. saccharata Sturt; test: Cultivation of Zea mays L. var. saccharata Sturt with GSSG leaf spray, sensory test (Example 11)
Description: In the present example, Zea mays L. var. saccharata Sturt was cultivated. First, a Zea mays L. var. saccharata Sturt seed (TAKII & CO. Ltd., product number: Canberra 86) was sown in vermiculite (ASAHI INDUSTRIES Co., LTD.). Two weeks after sowing, a Zea mays L. var. saccharata Sturt plant was transplanted to a hydroponic culture pot described in Example 1. To the plant, 3 g of Kumiai phosphorate ammonium nitrate potassium S-604 (Chisso Asahi Fertilizer Co., Ltd.) was applied as an additional fertilizer 4 weeks and 6 weeks after the sowing.
In the 5th, 6th, 7th, and 8th week after the sowing, 0.5 mM GSSG (dissolved in 0.1% Tween80 serving as a spreading agent) was sprayed onto a leaf surface. For comparison, a Zea mays L. var. saccharata Sturt plant was cultivated by the same method as in the present example, except that Tween80, but not GSSG, was applied, and fruit thereof was harvested.
Fruit was harvested 86 days after the sowing and subjected to a sensory test of sugar content. As a result, it was determined that fruit of the plant applied with GSSG increased in sugar content compared to that of the plant applied with no GSSG. Further, the fruit obtained was subjected to sugar content determination using “Pocket” Refractometer APAL-1 (ATAGO CO., LTD.). For comparison, the fruit of the plant applied with no GSSG was also subjected to the sugar content determination. […] In FIG. 8, the vertical scale indicates sugar content (Brix, unit: %).
It was also determined that the plant applied with GSSG increased in size and number of fruit. Further, it was determined that the fruit of the plant applied with GSSG was already able to be harvested 70 days after the sowing.

[4] = 0.5 mM in 0.1% Tween80 sprayed onto leaf surface in weeks 5-8

## oxidized glutathione [GSSG]
Lycopersicum esculentum [1]
  sugar content of fruit (Brix): significantly increased; also recorded: extremely high sugar content
Citrus unshiu
  acidity of fruit (sensory test): decreased
  sugar content of fruit (sensory test): increased
  weight of fruit: increased
Prunus avium (Napoleon)
  acidity of fruit (sensory test): decreased
  sugar content of fruit (sensory test): increased
  weight of fruit: increased
Lycopersicum esculentum [2]
  number of fruit: increased
Lycopersicum esculentum [2]; compared to plant not applied with GSSG or GSH
  sugar content of fruit (sensory test): increased
[3]; [4]
  number of fruit: increased
  size of fruit: increased
  time at which fruit was already able to be harvested: 70 days after the sowing
[3]; 0.5 mM in 0.1% Tween80 sprayed onto leaf surface in weeks 5-8 after sowing, harvest 86 days, vs Tween80 only
  sugar content of fruit (sensory test): increased
